Experimental data: ChEMBL document CHEMBL3580641, “Bioactive Maleic Anhydrides and Related Diacids from the Aquatic Hyphomycete Tricladium castaneicola” (J Nat Prod, 2015)
The source made the active and inactive calls. The calls are words filed in the database; no cut-off is given here.

Experiments:
[1] = test system: Phytophthora capsici; assay: Antifungal activity against Phytophthora capsici NBRC 30696 after 22 to 24 hrs by paper disk diffusion method; format: functional, organism-based
[2] = test system: B16; assay: Cytotoxicity against mouse B16 cells assessed as cell viability after 48 hrs by MTT assay; format: functional, cell-based; conditions: B16, 48 h

SMILES | Activity [1] | IC50 [2] [µM]
CC1=C(/C=C/CCCCC(C)O)C(=O)OC1=O (stereo unspecified) | inactive | –
C=C(C(=O)O)/C(=C\CCCCCCCO)C(=O)O | Active | –
CCCCCC/C=C/C1=C(C)C(=O)OC1=O | Active | 80
CCCCCC/C=C/C(C(=O)OC)=C(\C)C(=O)OC | Active | 30
CC(=O)O[C@H]1C(=O)[C@@]2(C)[C@H]([C@H](OC(=O)c3ccccc3)[C@]3(O)C[C@H](OC(=O)[C@H](O)[C@@H](NC(=O)c4ccccc4)c4ccccc4)C(C)=C1C3(C)C)[C@]1(OC(C)=O)CO[C@@H]1C[C@@H]2O [PACLITAXEL] | – | 56
C[C@@H]1[C@H](O)[C@@H](C)/C=C/C=C/C=C/C=C/C=C/C=C/C=C/[C@H](O[C@@H]2O[C@H](C)[C@@H](O)[C@H](N)[C@@H]2O)C[C@@H]2O[C@](O)(C[C@@H](O)C[C@@H](O)[C@H](O)CC[C@@H](O)C[C@@H](O)CC(=O)O[C@H]1C)C[C@H](O)[C@H]2C(=O)O | Active | –
CC1=C(/C=C/CCC/C=C/CO)C(=O)OC1=O | inactive | –
C=C(C(=O)O)/C(=C\CCCC[C@@H](O)CC)C(=O)O | Active | –
CC1=C(/C=C/CCC/C=C/C(=O)O)C(=O)OC1=O | Active | –
